Test results from patent US9675697B2 (THE REGENTS OF THE UNIVERSITY OF MICHIGAN, priority 2013, dated 2017).
Like-named read-outs stand apart in the source and are kept apart here.

How the values were obtained:
[1] = system: breast cancer MDA-MB-436 cell line; experiment: 4-day cell viability assay, WST; format: cell-based; conditions: read-out: Cell Growth Inhibition (IC50 (nM)) MDA-436 Cell Line (WST assay)
Protocol: (§1) The effect of representative BET bromodomain inhibitors on cell viability was determined in a 4-day proliferation assay. Cells were maintained in the appropriate culture medium with 10% FBS at 37° C. and an atmosphere of 5% CO2. All the cell lines were used within three months of thawing fresh vials.
(§2) Cells were seeded in 96-well flat bottom (Corning COSTAR, Corning, N.Y., cat#3595) or white opaque cell culture plates (BD Falcon, cat#353296) at a density of 3,000-10,000 cells/well in 75 μl of culture medium. Compounds were serially diluted in the appropriate medium, and 75 μl of the diluted compounds were added to the appropriate wells of the cell plate. After the addition of compounds, the cells were incubated at 37° C. in an atmosphere of 5% CO2 for 4 days. Cell viability was determined using the CellTiter-Glo® Luminescent Cell Viability Assay Kit (Promega, Madison, Wis.) for MOLM-13 cells and WST (2-(2-methoxy-4-nitrophenyl)-3-(4-nitrophenyl)-5-(2,4-disulfophenyl)-2H-tetrazolium, monosodium salt) Cell Counting-8 Kit (Dojindo Molecular Technologies, Inc., Rockville, Md.) for MDA-MB-436 cells according to the manufacturers' instructions.
For the WST assay, WST-8 reagent was added to each well at a final concentration of 10% (v/v), and then the plates were incubated at 37° C. for 1-2 hours for color development. The absorbance was measured at 450 nm using a SPECTRAmax PLUS plate reader (Molecular Devices, Sunnyvale, Calif.). The readings were normalized to the DMSO-treated cells and the half maximal inhibitory concentration (IC50) was calculated by nonlinear regression (four parameters sigmoid fitted with variable slope, least squares fit, and no constraint) analysis using the GraphPad Prism 5 software (GraphPad Software, La Jolla, Calif.).

[2] = system: leukemia MOLM-13 cell line; experiment: 4-day cell viability assay, CellTiter-Glo; format: cell-based; conditions: read-out: Cell Growth Inhibition (IC50 (nM)) MOLM-13 Cell Line (CellTiter-Glo assay)
Protocol: as §1, §2
For the CellTiter-Glo assay, 100 μl of CellTiter-Glo® Reagent was added to each well, and then the plates were incubated at room temperature for 10-20 minutes. The luminescent signal was measured using a Tecan Infinite M1000 multimode microplate reader (Tecan, Morrisville, N.C.). The readings were normalized to the DMSO-treated cells and the IC50 was calculated by nonlinear regression (four parameters sigmoid fitted with variable slope, least squares fit, and no constraint) analysis using the GraphPad Prism 5 software.

BRD2 BD2 = BRD2 BD2 (Homo sapiens (Human), UniProt P25440); experiment: FP competitive binding assay using Cpd. No. 350 as the probe
Protocol: (§3) Fluorescence Polarization (FP) competitive binding studies (see above) were carried out using the FAM labeled fluorescent probe Cpd. No. 350 to determine binding affinities of representative compounds to both BD1 and BD2 of BRD2, BRD3, and BRD4 proteins. Equilibrium dissociation constants (Id) values of Cpd. No. 350 to these six proteins were determined from protein saturation experiments by monitoring the total fluorescence polarization of mixtures composed with the fluorescent probe at a fixed concentration and proteins with increasing concentrations up to full saturation. Serial dilutions of testing protein were mixed with Cpd. No. 350 to a final volume of 200 μl in the assay buffer. […] Plates were incubated at room temperature for 30 minutes with gentle shaking to assure equilibrium. […] Kd values of Cpd.
(§4) The IC50 and Ki values of compounds were determined in a competitive binding experiment as described above. […] FP values were measured as described above. IC50 values were determined by nonlinear regression fitting of the competition curves.

BRD3 BD1 = BRD3 BD1 (Homo sapiens (Human), UniProt Q15059); experiment: as above
Protocol: as §3, §4

BRD4 BD2 = BRD4 BD2 (Homo sapiens (Human), UniProt O60885); experiment: as above
BRD2 BD1 = BRD2 BD1 (Homo sapiens (Human), UniProt P25440); experiment: as above
Protocol: as §3, §4

BRD3 BD2 = BRD3 BD2 (Homo sapiens (Human), UniProt Q15059); experiment: as above
Protocol: as §3, §4

BRD4 BD1 = BRD4 BD1 (Homo sapiens (Human), UniProt O60885); experiment: as above
[3] = read-out: BRD2 BD2 Ki, FP, Cpd. No. 350 probe […]
[4] = read-out: BRD3 BD1 Ki, FP, Cpd. No. 350 probe […]
[5] = read-out: BRD4 BD2 Ki, FP, Cpd. No. 350 probe […]
[6] = read-out: BRD2 BD1 Ki, FP, Cpd. No. 350 probe […]
[7] = read-out: BRD3 BD2 Ki, FP, Cpd. No. 350 probe […]
[8] = read-out: BRD4 BD1 Ki, FP, Cpd. No. 350 probe […]
[9] = Homo sapiens, MDA-MB-436, 96 h, 4 days
[10] = Homo sapiens, MOLM-13, 96 h, 4 days

BRD3 BD2, sequence (Q15059 306-415): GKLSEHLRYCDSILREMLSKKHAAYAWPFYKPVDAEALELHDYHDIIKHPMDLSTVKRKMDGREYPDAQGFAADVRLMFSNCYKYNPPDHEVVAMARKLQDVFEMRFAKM
BRD2 BD1, sequence (P25440 74-180): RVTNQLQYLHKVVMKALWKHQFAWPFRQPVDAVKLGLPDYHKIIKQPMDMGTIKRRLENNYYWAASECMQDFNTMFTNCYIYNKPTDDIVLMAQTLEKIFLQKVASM
BRD3 BD1, sequence (Q15059 34-140): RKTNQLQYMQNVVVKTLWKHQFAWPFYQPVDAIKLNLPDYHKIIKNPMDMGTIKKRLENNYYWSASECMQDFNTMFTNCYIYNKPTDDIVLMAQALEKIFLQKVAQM
BRD2 BD2, sequence (P25440 344-453): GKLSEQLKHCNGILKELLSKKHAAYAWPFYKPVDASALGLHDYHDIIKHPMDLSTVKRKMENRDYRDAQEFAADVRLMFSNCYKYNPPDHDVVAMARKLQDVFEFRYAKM

| SMILES | Ki (BRD2 BD2; [3]) [µM] | Ki (BRD3 BD1; [4]) [µM] | Ki (BRD4 BD2; [5]) [µM] | Ki (BRD2 BD1; [6]) [µM] | Ki (BRD3 BD2; [7]) [µM] | Ki (BRD4 BD1; [8]) [µM] | IC50 [1, 9] [nM] | IC50 [2, 10] [nM] | also measured |
| --- | --- | --- | --- | --- | --- | --- | --- | --- | --- |
| COc1cc2c(cc1-c1c(C)noc1C)[nH]c1nc(C)nc(-c3ccc(NC(=O)N4CCN(C)CC4)c4ccccc34)c12 [Cpd. No. 316] | – | – | – | – | – | – | – | – | IC50 ([1]; Homo sapiens, MDA-MB-436, 96 h): 45.2 nM; IC50 ([2]; Homo sapiens, MOLM-13, 96 h): 7.4 nM |
| COc1cc2c(cc1-c1c(C)noc1C)[nH]c1ccnc(-c3c(C)nn(-c4ccccc4)c3C)c12 [Cpd. No. 352, 4-(1-(3,5-dimethyl-1-phenyl-1H-pyrazol-4-yl)-8-methoxy-5H-pyrido[4,3-b]indol-7-yl)-3,5-dimethylisoxazole] | 0.0529 ± 0.0027 | 0.0318 ± 0.0015 | 0.0981 ± 0.0061 | 0.0626 ± 0.009 | 0.035 ± 0.002 | 0.103 ± 0.003 | – | – | IC50 ([1]; 4 days): 724 nM; IC50 ([2]; 4 days): 751 nM |
| COc1cc2c(cc1-c1c(C)noc1C)[nH]c1ccnc(-c3c(-c4ccccc4)n[nH]c3C)c12 [Cpd. No. 26, 4-(8-methoxy-1-(5-methyl-3-phenyl-1H-pyrazol-4-yl)-5H-pyrido[4,3-b]indol-7-yl)-3,5-dimethylisoxazole] | – | – | – | – | – | – | 696 | 431 | – |
| COc1cc2c(cc1-c1c(C)noc1C)[nH]c1nc(C)nc(-c3ccc(C(=O)NC4CCN(C)CC4)c4ccccc34)c12 [Cpd. No. 196, 4-(7-(3,5-Dimethylisoxazol-4-yl)-6-methoxy-2-methyl-9H-pyrimido[4,5-b]indol-4-yl)-N-(1-methylpiperidin-4-yl)-1-naphthamide] | 0.0035 | 0.0097 | 0.007 | 0.0043 | 0.0014 | 0.0123 | 53 | 6.8 | – |
| COc1cc2c(cc1-c1c(C)noc1C)[nH]c1nc(C)nc(-c3cc(C(=O)NC4CCN(C5COC5)CC4)[nH]c3C(C)C)c12 [Cpd. No. 213, 4-(7-(3,5-Dimethylisoxazol-4-yl)-6-methoxy-2-methyl-9H-pyrimido[4,5-b]indol-4-yl)-5-isopropyl-N-(1-(oxetan-3-yl)piperidin-4-yl)-1H-pyrrole-2-carboxamide] | 0.0071 | 0.014 | 0.0065 | 0.0105 | 0.0022 | 0.0208 | 225 | 48 | – |
| COc1cc2c(cc1-c1c(C)noc1C)[nH]c1ccnc(Cl)c12 [RX-3, 4-(1-chloro-8-methoxy-5H-pyrido[4,3-b]indol-7-yl)-3,5-dimethylisoxazole] | 0.109 ± 0.01 | 0.144 ± 0.017 | 0.194 ± 0.024 | 0.215 ± 0.034 | 0.0638 ± 0.006 | 0.305 ± 0.026 | – | – | – |
| COc1cc2c(cc1-c1c(C)nn(C)c1C)[nH]c1ccnc(Cl)c12 [RX-27] | 2.84 ± 0.574 | 5.03 ± 1.01 | 1.95 ± 0.175 | 5.45 ± 1.92 | 2.05 ± 0.142 | 4.842 ± 0.029 | – | – | – |
| CCc1noc(CC)c1-c1cc2[nH]c3ccnc(Cl)c3c2cc1OC [RX-45] | – | – | 8.32 ± 3.22 | – | 3.44 ± 1.99 | > 10 | – | – | – |
| CCc1noc(C)c1-c1cc2[nH]c3ccnc(Cl)c3c2cc1OC [RX-39] | 0.638 ± 0.07 | 0.668 ± 0.082 | 0.478 ± 0.069 | 1.72 ± 0.892 | 0.406 ± 0.192 | 1.24 ± 0.549 | – | – | – |
| COc1cc2c(cc1-c1c(C)noc1C)[nH]c1nc(C)nc(-c3cc(C(=O)NC4CCN(C)CC4)cc(C(C)(C)C)c3)c12 [Cpd. No. 319] | – | – | – | – | – | – | – | – | IC50 ([1]; Homo sapiens, MDA-MB-436, 96 h): 67.4 nM; IC50 ([2]; Homo sapiens, MOLM-13, 96 h): 10 nM |
| COc1cc2c(cc1-c1c(C)noc1C)[nH]c1nc(C)nc(-c3cc(C(=O)NC4CCN(C5COC5)CC4)cc(C(C)(C)C)c3)c12 [Cpd. No. 322] | – | – | – | – | – | – | – | – | IC50 ([1]; Homo sapiens, MDA-MB-436, 96 h): 63.9 nM; IC50 ([2]; Homo sapiens, MOLM-13, 96 h): 19.4 nM |
| COc1cc2c(cc1-c1c(C)noc1C)[nH]c1nc(C)nc(-c3ccc(C(=O)NC4CCN(C5COC5)CC4)c4ccccc34)c12 [Cpd. No. 197, 4-(7-(3,5-Dimethylisoxazol-4-yl)-6-methoxy-2-methyl-9H-pyrimido[4,5-b]indol-4-yl)-N-(1-(oxetan-3-yl)piperidin-4-yl)-1-naphthamide] | 0.0036 | 0.0105 | 0.0089 | 0.0062 | 0.0013 | 0.0171 | 101 | 17.3 | – |
| COc1cc2c(cc1-c1c(C)noc1C)[nH]c1nc(C)nc(-c3ccc(NC(=O)N4CCN(C5COC5)CC4)c4ccccc34)c12 [Cpd. No. 317] | – | – | – | – | – | – | – | – | IC50 ([1]; Homo sapiens, MDA-MB-436, 96 h): 169 nM; IC50 ([2]; Homo sapiens, MOLM-13, 96 h): 31.6 nM |
| CCc1onc(C)c1-c1cc2[nH]c3ccnc(Cl)c3c2cc1OC [RX-38] | 1.88 ± 0.432 | 0.703 ± 0.432 | 2.18 ± 0.132 | 0.76 ± 0.24 | 1.28 ± 1.07 | 2.81 ± 0.782 | – | – | – |
| COc1cc2c(cc1-c1c(C)noc1C)[nH]c1nc(C)nc(-c3cc(C(=O)NC4CCN(C5CCOCC5)CC4)[nH]c3C(C)C)c12 [Cpd. No. 212, 4-(7-(3,5-Dimethylisoxazol-4-yl)-6-methoxy-2-methyl-9H-pyrimido[4,5-b]indol-4-yl)-5-isopropyl-N-(1-(tetrahydro-2H-pyran-4-yl)piperidin-4-yl)-1H-pyrrole-2-carboxamide] | 0.0046 | 0.0102 | 0.0045 | 0.0057 | 0.001 | 0.017 | 100 | 22 | – |
| COc1cc2c(cc1-c1c(C)noc1C)[nH]c1nc(C)nc(-c3ccc(C(=O)N4CCN(C)CC4)c4ccccc34)c12 [Cpd. No. 207, (4-(7-(3,5-Dimethylisoxazol-4-yl)-6-methoxy-2-methyl-9H-pyrimido[4,5-b]indol-4-yl)naphthalen-1-yl)(4-methylpiperazin-1-yl)methanone] | 0.0051 | 0.01 | 0.0041 | 0.0053 | 0.0013 | 0.0147 | 58.1 | 5.3 | – |
| COc1cc2c(cc1-c1c(C)noc1C)[nH]c1nc(C)nc(-c3cc(C(=O)NC4CCN(C)CC4)[nH]c3C(C)C)c12 [Cpd. No. 211, 4-(7-(3,5-Dimethylisoxazol-4-yl)-6-methoxy-2-methyl-9H-pyrimido[4,5-b]indol-4-yl)-5-isopropyl-N-(1-methylpiperidin-4-yl)-1H-pyrrole-2-carboxamide] | 0.0049 | 0.0108 | 0.0052 | 0.0057 | 0.0012 | 0.0172 | 140 | 10.4 | – |
| COc1cc2c(cc1-c1c(C)nn(C)c1C)[nH]c1ccnc(-c3c(C)nn(C)c3C)c12 [Cpd. No. 33, 8-methoxy-1,7-bis(1,3,5-trimethyl-1H-pyrazol-4-yl)-5H-pyrido[4,3-b]indole] | – | – | – | – | – | – | – | – | Ki (BRD2 BD2): 0.909 ± 0.272 µM; Ki (BRD3 BD1): 1.22 ± 0.1 µM; Ki (BRD4 BD2): 0.867 ± 0.107 µM; Ki (BRD2 BD1): 1.67 ± 0.448 µM; Ki (BRD3 BD2): 0.348 ± 0.012 µM; Ki (BRD4 BD1): 1.726 ± 0.017 µM |
| COc1cc2c(cc1-c1c(C)noc1C)[nH]c1nc(C)nc(-c3cccc(C(C)(C)O)c3)c12 [Cpd. No. 183, 2-(3-(7-(3,5-Dimethylisoxazol-4-yl)-6-methoxy-2-methyl-9H-pyrimido[4,5-b]indol-4-yl)phenyl)propan-2-ol] | 0.0088 | 0.0061 | 0.0117 | 0.0052 | 0.0047 | 0.0079 | 93 | 20 | – |
